Reference: the NIST ThermoML archive (doi:10.1021/je060271a)

Conditions: 303.15 K, Liquid, Vibrating tube method

CCCCCCCC(=O)OCC(COC(=O)CCCCCCC)(COC(=O)CCCCCCC)COC(=O)CCCCCCC [pentaerythritol tetraoctanoate]
Conditions | mass density [kg/m3]
7240.6 kPa | 959.8
7273.2 kPa | 959.8
7299.8 kPa | 960
7389.7 kPa | 960
7422.6 kPa | 959.9
7449.6 kPa | 959.9
7483.3 kPa | 960
7511.3 kPa | 960
7544.9 kPa | 960
7573.7 kPa | 960.1
7608.5 kPa | 960.1
7643.5 kPa | 960.1
7673.8 kPa | 960.1
7703.3 kPa | 960.1
7739.3 kPa | 960.2
7769.3 kPa | 960.2
7806.2 kPa | 960.1
7836.8 kPa | 960.2
7874 kPa | 960.2
7904.9 kPa | 960.1
7943.2 kPa | 960.2
8013.8 kPa | 960.3
8160.1 kPa | 960.4
8194.2 kPa | 960.5
8236.1 kPa | 960.4
8272 kPa | 960.5
8310.6 kPa | 960.5
8341.7 kPa | 960.5
8372.2 kPa | 960.5
8402.7 kPa | 960.5
8428.6 kPa | 960.5
8458.8 kPa | 960.7
8489.8 kPa | 960.6
8521.4 kPa | 960.7
8548.1 kPa | 960.7
8580.2 kPa | 960.7
8612.1 kPa | 960.7
8643.8 kPa | 960.7
8676.1 kPa | 960.8
8703.6 kPa | 960.8
8736.1 kPa | 960.7
8769.5 kPa | 960.9
8802.3 kPa | 960.8
8866 kPa | 960.8
8901.6 kPa | 960.9
8936.7 kPa | 960.9
8961.2 kPa | 960.8
8990.2 kPa | 960.9
9019.5 kPa | 960.9
9048.8 kPa | 960.9
9078.2 kPa | 961
9103.3 kPa | 961
9132.9 kPa | 961.1
9163.2 kPa | 961
9193.9 kPa | 961.1
9224.2 kPa | 961
9250.4 kPa | 961.1
9281.3 kPa | 961
9371.4 kPa | 961.1
9403.3 kPa | 961.2
9435.5 kPa | 961.1
9467.7 kPa | 961.2
9500.5 kPa | 961.2
9527.3 kPa | 961.2
9559.2 kPa | 961.2
9592.8 kPa | 961.2
9618.8 kPa | 961.3
9652.6 kPa | 961.3
9687 kPa | 961.4
9722.3 kPa | 961.4
9750.6 kPa | 961.4
9785.2 kPa | 961.3
9821.4 kPa | 961.4
9856.8 kPa | 961.4
9893.5 kPa | 961.5
9924.2 kPa | 961.5
9961.2 kPa | 961.5
9999 kPa | 961.5
10037 kPa | 961.6
10067 kPa | 961.6
10092 kPa | 961.6
10122 kPa | 961.6
10152 kPa | 961.6
10177 kPa | 961.6
10208 kPa | 961.5
10238 kPa | 961.7
10270 kPa | 961.6
10302 kPa | 961.8
10334 kPa | 961.7
10357 kPa | 961.7
10380 kPa | 961.8
10403 kPa | 961.6
10423 kPa | 961.7
10447 kPa | 961.7
10471 kPa | 961.7
10491 kPa | 961.8
10514 kPa | 961.8
10538 kPa | 961.9
10562 kPa | 961.9
10582 kPa | 961.9
10607 kPa | 961.9
10631 kPa | 961.9
10656 kPa | 961.9
10680 kPa | 961.9
10702 kPa | 962
10727 kPa | 962
10751 kPa | 961.9
10779 kPa | 961.9
10801 kPa | 961.9
10826 kPa | 962
10852 kPa | 962.1
10878 kPa | 962.1
10899 kPa | 962
10924 kPa | 962.1
10950 kPa | 962.1
10975 kPa | 962.1
10996 kPa | 962.2
11075 kPa | 962.1
11103 kPa | 962.2
11125 kPa | 962.2
11152 kPa | 962.2
11180 kPa | 962.2
11202 kPa | 962.2
11229 kPa | 962.4
11257 kPa | 962.2
11285 kPa | 962.3
11313 kPa | 962.3
11337 kPa | 962.3
11365 kPa | 962.4
11393 kPa | 962.3
11422 kPa | 962.3
11446 kPa | 962.4
11475 kPa | 962.3
11504 kPa | 962.4
11533 kPa | 962.4
11562 kPa | 962.4
11587 kPa | 962.5
11616 kPa | 962.5
11645 kPa | 962.6
11669 kPa | 962.5
11699 kPa | 962.6
11729 kPa | 962.4
11760 kPa | 962.6
11790 kPa | 962.6
11816 kPa | 962.6
11847 kPa | 962.6
11878 kPa | 962.7
11909 kPa | 962.6
11935 kPa | 962.6
11965 kPa | 962.7
11996 kPa | 962.7
12028 kPa | 962.7
12059 kPa | 962.7
12086 kPa | 962.8
12118 kPa | 962.8
12150 kPa | 962.8
12183 kPa | 962.8
12208 kPa | 962.8
12241 kPa | 962.9
12274 kPa | 962.8
12307 kPa | 962.8
12340 kPa | 962.9
12368 kPa | 963
12402 kPa | 962.9
12436 kPa | 963
12470 kPa | 963.1
12499 kPa | 963.1
12533 kPa | 962.9
12568 kPa | 963
12603 kPa | 963
12633 kPa | 963.1
12668 kPa | 963.1
12704 kPa | 963.1
12734 kPa | 963.1
12770 kPa | 963.2
12805 kPa | 963.2
12841 kPa | 963.2
12878 kPa | 963.1
12916 kPa | 963.2
12947 kPa | 963.3
12985 kPa | 963.3
13022 kPa | 963.3
13059 kPa | 963.3
13090 kPa | 963.4
13128 kPa | 963.3
13167 kPa | 963.4
13200 kPa | 963.3
13240 kPa | 963.3
13279 kPa | 963.6
13308 kPa | 963.5
13346 kPa | 963.4
13386 kPa | 963.5
13427 kPa | 963.6
13468 kPa | 963.5
13501 kPa | 963.7
13542 kPa | 963.6
13577 kPa | 963.5
13611 kPa | 963.7
13693 kPa | 963.7
13813 kPa | 963.7
13941 kPa | 963.8
13985 kPa | 963.8
14067 kPa | 964
14112 kPa | 964
14142 kPa | 964
14187 kPa | 964
14240 kPa | 964.1
14286 kPa | 964.1
14332 kPa | 964.1
14371 kPa | 964.1
14417 kPa | 964.1
14464 kPa | 964.1
14512 kPa | 964.2
14551 kPa | 964.1
14598 kPa | 964.1
14647 kPa | 964.2
14697 kPa | 964.3
14737 kPa | 964.2
14787 kPa | 964.4
14836 kPa | 964.4
14887 kPa | 964.3
14930 kPa | 964.3
14981 kPa | 964.5
15031 kPa | 964.5
15083 kPa | 964.5
15135 kPa | 964.5
15179 kPa | 964.6
15234 kPa | 964.6
15288 kPa | 964.5
15341 kPa | 964.7
15388 kPa | 964.7
15447 kPa | 964.7
15495 kPa | 964.8
15554 kPa | 964.8
15616 kPa | 964.9
15669 kPa | 964.9
15728 kPa | 964.9
15758 kPa | 964.9
15786 kPa | 964.9
15815 kPa | 965
15840 kPa | 964.9
15869 kPa | 964.9
15894 kPa | 964.9
15923 kPa | 964.9
15952 kPa | 965.1
15978 kPa | 965
16008 kPa | 965.1
16032 kPa | 965.1
16062 kPa | 965.2
16092 kPa | 965.1
16117 kPa | 965.2
16148 kPa | 965.1
16173 kPa | 965.1
16205 kPa | 965.1
16230 kPa | 965.1
16261 kPa | 965.2
16288 kPa | 965.2
16319 kPa | 965.2
16349 kPa | 965.2
16375 kPa | 965.3
16407 kPa | 965.4
16433 kPa | 965.3
16465 kPa | 965.2
16496 kPa | 965.2
16523 kPa | 965.3
16556 kPa | 965.3
16586 kPa | 965.4
16613 kPa | 965.4
16645 kPa | 965.4
16672 kPa | 965.4
16704 kPa | 965.3
16737 kPa | 965.5
16764 kPa | 965.4
16798 kPa | 965.5
16825 kPa | 965.4
16853 kPa | 965.5
16875 kPa | 965.6
16908 kPa | 965.6
16952 kPa | 965.6
16982 kPa | 965.7
17016 kPa | 965.6
17044 kPa | 965.6
17078 kPa | 965.6
17112 kPa | 965.7
17141 kPa | 965.7
17175 kPa | 965.7
17209 kPa | 965.7
17238 kPa | 965.9
17272 kPa | 965.8
17302 kPa | 965.9
17339 kPa | 965.8
17367 kPa | 965.9
17402 kPa | 965.8
17434 kPa | 965.9
17468 kPa | 965.9
17504 kPa | 966
